Experimental data taken from PubChem BioAssay AID330 (DTP/NCI, 2004).
Values joined by “and” are separate entries in the source; they are usually repeats but may differ in a detail not shown here. Equal entries are not always repeated. Inconclusive results and toxic doses are left out. The calls were made as follows: active = survival T/C of 150% or more; inactive = T/C below 125% in these data. Square brackets hold non-standard residues; d marks the D form. Peptide text beside a SMILES is read from it. ξ: configuration not given here. ξR = N=C(N)NCCCC(N)C(=O)O

Test system: P388 leukemia ip, CD2F1 mice, survival T/C
Test: NCI In Vivo Anticancer Drug Screen. Data for tumor model P388 Leukemia (intraperitoneal) in CD2F1 (CDF1) mice
Conditions: endpoint: median survival time, higher = longer survival
How it was run: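 Mice carrying the transplanted tumor received test compound or vehicle. Survival was recorded in each group, and the value is the treated-group measurement divided by that of the vehicle-treated control group.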

[1] = dose: 60.0 mg/kg/injection, schedule: Q01DX005 (ip), vehicle: saline with Tween-80
[2] = dose: 120.0 mg/kg/injection, schedule: Q01DX005 (ip), vehicle: saline with Tween-80
[3] = dose: 240.0 mg/kg/injection, schedule: Q01DX005 (ip), vehicle: saline with Tween-80
[4] = dose: 50.0 mg/kg/injection, schedule: Q01DX009 (ip), vehicle: Klucel (hydroxypropylcellulose) (HPC)
[5] = dose: 100.0 mg/kg/injection, schedule: Q01DX009 (ip), vehicle: Klucel (hydroxypropylcellulose) (HPC)
[6] = dose: 200.0 mg/kg/injection, schedule: Q01DX009 (ip), vehicle: Klucel (hydroxypropylcellulose) (HPC)
[7] = dose: 50.0 mg/kg/injection, schedule: Q01DX005 (ip), vehicle: saline with Tween-80
[8] = dose: 100.0 mg/kg/injection, schedule: Q01DX005 (ip), vehicle: saline with Tween-80
[9] = dose: 200.0 mg/kg/injection, schedule: Q01DX005 (ip), vehicle: saline with Tween-80
[10] = dose: 50.0 mg/kg/injection, schedule: Q01DX009 (ip), vehicle: saline
[11] = dose: 100.0 mg/kg/injection, schedule: Q04DX003 (ip), vehicle: saline with Tween-80
[12] = dose: 200.0 mg/kg/injection, schedule: Q01DX009 (ip), vehicle: saline
[13] = dose: 200.0 mg/kg/injection, schedule: Q04DX003 (ip), vehicle: saline with Tween-80
[14] = dose: 50.0 mg/kg/injection, schedule: Q01DX005 (ip), vehicle: saline
[15] = dose: 100.0 mg/kg/injection, schedule: Q01DX005 (ip), vehicle: saline

Measured: T/C

COc1cc(C(Nc2ccccn2)c2cc3c(cc2OC(C)=O)OCO3)cc(OC)c1OC (stereo unspecified)
inactive: [1] 104 % of control | [2] 97 % of control | [3] 88 % of control

O=C(NCc1ccccc1)C1C(=O)C(=O)N(Cc2ccccc2)C1=O (stereo unspecified)
inactive: [4] 105 % of control | [5] 100 % of control | [6] 107 % of control

C=CC(N)[Si](CC)(CC)CC (stereo unspecified)
inactive: [1] 106 % of control | [2] 101 % of control

CCN(CC)CCNc1cccc2c(SC)ccnc12
inactive: [7] 101 % of control | [8] 104 % of control | [9] 101 % of control

Cc1ccc(C2(c3ccccc3)OC3OC=CC32)cc1 (stereo unspecified)
inactive: dose: 25.0 mg/kg/injection, schedule: Q01DX005 (ip), vehicle: saline with Tween-80 97 % of control | [7] 101 % of control | [1] 96 % of control | [8] 100 % of control | [3] 96 % of control

c1ccc2n[nH]nc2c1
inactive: [10] 100 % of control | dose: 100.0 mg/kg/injection, schedule: Q01DX001 (ip), vehicle: saline with Tween-80 112 % of control | dose: 100.0 mg/kg/injection, schedule: Q01DX009 (ip), vehicle: saline with Tween-80 104 % of control | dose: 100.0 mg/kg/injection, schedule: Q01DX009 (ip), vehicle: saline 100 % of control | [11] 95 % of control | dose: 200.0 mg/kg/injection, schedule: Q01DX001 (ip), vehicle: saline with Tween-80 105 % of control | dose: 200.0 mg/kg/injection, schedule: Q01DX009 (ip), vehicle: saline with Tween-80 109 % of control | [12] 104 % of control | [13] 109 % of control

C=C1C(=O)OC2C1CCC(C)=C1C(=O)C=C(C)C12 (stereo unspecified)
inactive: dose: 50.0 mg/kg/injection, schedule: Q04DX003 (ip), vehicle: saline with Tween-80 109 % of control | [11] 116 % of control | [13] 119 % of control

NC(N)=NCCCC(N)C(=O)NCC(=O)NCC(=O)O (stereo not drawn) (H-[ξR]-Gly-Gly-OH)
inactive: [14] 98 % of control | [15] 96 % of control | dose: 200.0 mg/kg/injection, schedule: Q01DX005 (ip), vehicle: saline 98 % of control

CN(C)CCC(=O)/C=C/c1ccc(Cl)c(Cl)c1
inactive: dose: 6.25 mg/kg/injection, schedule: Q01DX009 (ip), vehicle: saline with Tween-80 92 % of control | dose: 12.5 mg/kg/injection, schedule: Q01DX009 (ip), vehicle: saline with Tween-80 101 % of control | dose: 25.0 mg/kg/injection, schedule: Q01DX009 (ip), vehicle: saline with Tween-80 113 % of control | dose: 50.0 mg/kg/injection, schedule: Q01DX009 (ip), vehicle: saline with Tween-80 116 % of control

CCN(CC)c1ccc(Pc2ccc(N(CC)CC)cc2)cc1
inactive: dose: 12.5 mg/kg/injection, schedule: Q01DX009 (ip), vehicle: saline 104 % of control | dose: 25.0 mg/kg/injection, schedule: Q01DX009 (ip), vehicle: saline 108 % of control | [10] 99 % of control and 88 % of control | [12] 92 % of control

CCOC(=O)/C(C)=C1\N=C(c2ccccc2)OC(=NC2CCCCC2)N1C1CCCCC1
inactive: [7] 96 % of control | [8] 91 % of control | [9] 94 % of control

CC([NH-])C[NH-].[Cl][Pt+2][Cl] (stereo unspecified)
active: dose: 3.12 mg/kg/injection, schedule: Q01DX001 (ip), vehicle: Klucel (hydroxypropylcellulose) (HPC) 157 % of control | dose: 12.5 mg/kg/injection, schedule: Q01DX001 (ip), vehicle: Klucel (hydroxypropylcellulose) (HPC) 163 % of control

CN(C)c1cnc(N)nc1N
inactive: dose: 25.0 mg/kg/injection, schedule: Q01DX005 (ip), vehicle: saline 95 % of control and 97 % of control | [14] 97 % of control | [15] 95 % of control

CCn1c(=O)c2[nH]c(-n3c(Cl)nc4c3c(=O)n(CC)c(=O)n4CC)nc2n(CC)c1=O
inactive: [4] 101 % of control | [5] 98 % of control | [6] 120 % of control

c1cnc2c(NC3CCCCC3)ncnc2n1
inactive: [4] 100 % of control | [5] 98 % of control | [6] 97 % of control

CSCCC(NC(=O)c1cnc2ccccc2c1)C(N)=O (stereo unspecified)
inactive: [1] 103 % of control | [2] 97 % of control | [3] 87 % of control
